Data as given in patent US12440466B2, “Fatty acid derivatives for treating non-alcoholic steatohepatitis” (BASF AS, priority 2017, dated 2025).
Marks after values point to notes of the source that are not given here.

How the values were obtained:
MMP-13 mRNA = assay: Hepatic MMP-13 mRNA expression by qPCR, CDAA/high-fat diet mouse model; format: in vivo; conditions: CDAA/high-fat fed mice; Compound A 0.3 mmol/kg bw/day oral; GLP-1a 0.4 mg/kg once weekly i.p.
Experimental: Mice were fed either choline-sufficient (CS) or choline deficient high-fat diets (31% total calories; “CDAA/high-fat”). The NASH inducing diet was instigated 6 weeks prior to the commencement of treatment in order to design the study as a treatment/reversal set-up rather than prophylaxis.
Studies were performed in male C56BL/6J mice (9 weeks old). Mice were divided into 6 experimental groups (n=9 per group) containing either CS or CDAA/high-fat diets, as described above. The NASH inducing CDAA/high fat diet was instigated 6 weeks prior to the commencement of treatment in order to assess treatment/reversal rather than prophylaxis. […] Compound A was administered orally as admix to the high-fat diet whilst GLP-1 agonist was delivered via intraperitoneal injection (i.p.). Fibrosis, inflammation and metabolism related transcripts levels were measured by quantitative real-time polymerase chain reaction (qPCR) in isolated liver tissue.

STAM (model) mice = assay: NAFLD activity score (NAS) in streptozotocin/high-fat diet NASH model (STAM model); format: in vivo, mouse; conditions: 6 weeks treatment, Compound A 37 mg/kg/day oral gavage, telmisartan positive control
Source text: In Biological Example 8, pathogen-free 15-day-pregnant C57BL/6 mice were obtained from Charles River Laboratories in Japan Inc. (Kanagawa, Japan). NASH was established in male mice by a single subcutaneous injection of streptozotocin (STZ) (Sigma, USA) after birth and feeding with a high fat diet (HFD; CLEA) Japan, Japan) ad libitum after 4 weeks of age (day 28±2). Mice were randomised into 3 groups of 8 mice at 6 weeks of age the day before the start of treatment: vehicle (saline), Compound A and telmisartan (positive control). Treatment with Compound A at a dose of 37 mg/kg bw per day via oral gavage in conjunction with a high-fat diet was given for 6 weeks before sacrifice. NAFLD activity score (NAS) was calculated according to standardised criteria and fibrosis area was assessed via Sirius Red staining.

APOE*3Leiden.CETP mice = assay: Hepatocellular hypertrophy grading in APOE*3Leiden.CETP double transgenic mice; format: in vivo, mouse; conditions: APOE*3Leiden.CETP mice on high fat/cholesterol diet; 0.3 mmol/kg bw per day by gavage; 20 weeks
Source text: The APOE*3Leiden.CETP double transgenic mouse expresses a variant of the human apolipoprotein E3 (APOE3), the APOE*3Leiden, in addition to the human apolipoprotein C1 (APOC1) and CETP. […] By increasing the cholesterol content of the diet in this model, all the characteristics of human NASH develop.
In one study (using 1% cholesterol w/w), after a 3 weeks run-in period low-responder mice (20% of total) were removed from the study and the remaining mice were sub-divided into 4 groups of 12 mice each (+5 in the control group), matched for plasma cholesterol, triglycerides, blood glucose, body weight and age (t=0) and treatment was started. The mice received a daily gavage between 07hr00 and 10hr00 with either Compound A at 0.3 mmol/kg bw per day, the comparison compound Compound N (0.3 mmol/kg bw per day), rosiglitazone (13 mg/kg bw per day) or control (corn oil). After 20 weeks of treatment mice were sacrificed by CO2 asphyxiation, the liver was collected and the level of hepatocellular hypertrophy was graded.

hepatic transcriptome = assay: Hepatic transcriptome (gene expression probes) in APOE*3.CETP transgenic mice; format: in vivo, mouse; conditions: Compound A at a fraction of the dose of the omega-3 ethyl esters, data not shown
ob/ob AMLN mice = assay: Plasma triglyceride and total cholesterol levels in ob/ob AMLN mice; format: in vivo, mouse; conditions: 8 weeks
Experimental: Obese diet-induced B6.V-Lepob/Jrj mice (ob/ob) are consistently fibrosis (liver) prone when cholesterol (2%), 40% fat (containing 18% trans-fatty acids) and 20% fructose are added to a high-caloric diet (i.e., AMLN high-fat diet). ob/ob mice on AMLN diet (termed ‘ob/ob AMLN mice’) develop steatohepatitis and fibrosis within a shorter timeframe ([…]) compared with wild-type C57BL/6 mice (AMLN mice) fed the same diet. ob/ob AMLN mice provide an obese diet-induced model of NASH that also allows the study of effects on glycemic control. Development of NASH in the ob/ob AMLN model is confirmed by biopsy.
In Biological Examples 10, 13-14, and 16-18, studies were performed in male ob/ob mice (5 weeks old) fed an AMLN high-fat diet for 18 weeks, then randomized into 6 groups (n=10 per group) to receive either Compound A (at 3 different daily doses, 45 mg/kg, 90 mg/kg or 135 mg/kg) via diet, 30 mg/kg bw per day obeticholic acid (OCA) via diet, or no treatment (vehicle) for a further 8 weeks. Assessment of NASH related parameters and fibrosis was made at study end by quantitative immune histochemistry (IHC) measurements.

[1] = test system: LX-2 human hepatic stellate cells; assay: LX-2 stellate cell proliferation by BrdU incorporation; format: cell-based; conditions: LX-2 cells, 24 hours
Experimental: Stellate cells are resident liver cells and the major cell type involved in the initiation and progression of liver fibrosis. In Biological Example 20, in vitro studies were performed on cultured human stellate cells (LX-2 cells) to assess direct effects of Compound A on these cells. Cells were treated for 24 hours with Compound A (10 μM, 25 μM, 50 μM, or 75 μM) or oleic acid (OA; 75 μM) and bromodeoxyuridine (BrdU) incorporation was assessed to determine effects on proliferation. A MTS (3-(4,5-dimethylthiazol-2-yl)-5-(3-carboxymethoxyphenyl)-2-(4-sulfophenyl)-2H-tetrazolium) assay was used to determine cell viability.
Cell proliferation of LX-2 human hepatic stellate cells treated for 24 hours with 10-75 μM of Compound A or oleic acid (OA) (75 μM) was assessed by BrdU incorporation. The results are normalised mean values ±S.E.M. of 5 independent experiments for icosabutate and 2 independent experiments for OA. […] The reduction in proliferation by Compound A was 25-34% at 24 hours whereas OA had no effect. The comparisons were made by one-way ANOVA with Dunnett's correction for multiple comparisons.

CC/C=C\C/C=C\C/C=C\C/C=C\C/C=C\CCCCOC(CC)C(=O)O (stereo not shown) [Compound A, 2-((5Z,8Z,11Z,14Z,17Z)-icosa-5,8,11,14,17-pentaenyloxy)butanoic acid]
MMP-13 (relative mRNA expression) (MMP-13 mRNA): 1.6*** | Hepatocellular ballooning (STAM (model) mice): 1 | Lobular inflammation (STAM (model) mice): 0.88 | NAS score (mean ± SD) (STAM (model) mice): 2.3 ± 1.5 | Steatosis (STAM (model) mice): 0.12 | Decrease in hypertrophy vs. control (%) (APOE*3Leiden.CETP mice): 83* % | Hepatocellular hypertrophy (APOE*3Leiden.CETP mice): 8.9 ± 5.9 | gene expression probes significantly up- or down-regulated in the liver (hepatic transcriptome): > 1094 | plasma total cholesterol levels (ob/ob AMLN mice; Compound A 90 mg/kg): comparable reductions | plasma triglyceride levels (ob/ob AMLN mice; Compound A 90 mg/kg): comparable reductions | plasma total cholesterol levels (ob/ob AMLN mice; Compound A 135 mg/kg): comparable reductions | plasma triglyceride levels (ob/ob AMLN mice; Compound A 135 mg/kg): comparable reductions | proliferation (BrdU incorporation) compared to OA or vehicle ([1]; 25 μM, p<0.005): less proliferative | proliferation (BrdU incorporation) compared to OA or vehicle ([1]; 50 μM, p<0.0001): less proliferative | proliferation (BrdU incorporation) compared to OA or vehicle ([1]; 75 μM, p<0.005): less proliferative | reduction in proliferation (BrdU incorporation) ([1]; Compound A 25-75 μM): 25-34%
